Laboratory results from US20230302133A1, “TARGETED PROTEIN DEGRADATION IN THERAPEUTIC CELLS” (The Regents of the University of California, priority 2020, published 2023).
Values belong to the compound of their own block, whether it stands above or below them. Residues, ends and D or L forms follow the SMILES beside them. *: point of attachment. Cbz = O=C(OCc1ccccc1)*

Legend:
[1] = system: STUD degradation of GFP in Jurkat T cells; experiment: Inhibitor assay: rescue of GFP fluorescence in Jurkat T cells expressing STUD and GFP target; assay type: cell-based; details: 5 hours
Procedure: Using the 2 plasmid system as described above, we lentivirally transduce Jurkat T cells. 72 hours after removal of lentivirus, we treat these Jurkat T cells and an untransduced control cell line with either 5 μM of the proteasomal inhibitor MG-132, 1 μM of the cullin ring ligase inhibitor MLN4924, 100 nM of the lysosomal inhibitor Bafilomycin Al, or DMSO vehicle control and incubate at 37 C for 5 hours. Using flow cytometry to measure GFP fluorescence following treatment, we observe that GFP fluorescence can indeed be rescued with MG-132 and MLN4924 when cells express both a functional STUD and a GFP target relative to DMSO vehicle control.
(§1) Inhibitor Assays: 100,000 cells were plated in a 96 well round bottom plate with either 5 μM MG-132 (Sigma-Aldrich #M7449-200UL), 1 μM MLN4924(Active Biochem #A-1139), 100 nM Bafilomycin A1(Enzo Life Sciences #BML-CM110-0100), or DMSO vehicle control and incubated at 37 C for 5 hours. After incubation, cells were pelleted by centrifugation at 400×g for 4 minutes. Supernatant was then removed and cells were washed once with 200 μL PBS. Cells were pelleted again (400×g for 4 minutes) and resuspended in flow buffer (PBS+2% FBS) for assay by flow cytometry.

NALM6 target cells = experiment: MLN dose response: ON switch CAR lysis of NALM6 target cells; assay type: cell-based, human; details: MLN4924 1 μM to 0.015625 μM, 72 hours, CD8+ T cells with antiCD19BBz CAR-SynZip and memSTUD
Procedure: CD8+primary human T cells were engineered with an antiCD19BBz CAR fused to a SynZip and a memSTUD that binds the SynZip using the same plasmids outlined in FIG. 14A by lentiviral transduction. As a control, we also lentivirally transduce CD8+primary human T cells with an antiCD19BBz and a SynZip memSTUD which cannot bind the CAR. These engineered cells and an untransduced control were cocultured with NALM6 target cells for 72 hours at 37 C in the presence of MLN4924 ranging from 1 μM to 0.015625 μM and a DMSO vehicle control. After coculture, target cell lysis was assayed by flow cytometry. Specific target cell lysis of each cell line relative to NALM6 cells cultured alone in the same conditions was then calculated.
100 μL containing media containing a 2×concentration of MLN4924 was added to each well of seeded cells. Cells with MLN4924 were incubated at 37 C for 72 hours. DMSO vehicle at the same concentration as the max MLN4924 concentration was added to cells as a control.

CD19BBz CAR = experiment: MLN4924 rescue of STUD knockdown of CD19BBz CAR expression in CD8+ primary T cells; assay type: cell-based, human; details: 1 μM MLN4924, 5 hours, 37 C
Procedure: Engineered CD8+T cells expressing were cocultured with NALM6 target cells and measured activation of the CAR by quantifying target cell lysis and expression of the T cell activation marker CD25.
as §1

[2] = system: CAR construct with SynZIP17 fused to its C-terminus; experiment: Degradation of CAR-SZ17 fusion in Jurkat cells; assay type: cell-based; details: degron directly fused to the CAR
Procedure: Next, the soluble STUD was used to target a membrane protein for degradation. The ability of the STUD to degrade a CAR in Jurkat cells was tested by generating a CAR construct with SynZIP17 fused to its C-terminus. However, while these STUDs worked to some extent, none of them were able to completely knockdown CAR expression (see FIG. 8).
Membrane targeting STUD: Membrane targeting cells were introduced by lentiviral transduction of two plasmids. […] Cells were then analyzed by flow cytometry. […] CAR and SynNotch expression was measured by antibody staining for a peptide tag fused to the extracellular domain of the CAR/SynNotch.

GFP-SZ17 [GFP: P42212] = experiment: cell-based or functional assay

Compound: bafilomycin
GFP fluorescence relative to DMSO vehicle control ([1]; 100 nM Bafilomycin, 37 C): No changes

Compound: NS(=O)(=O)OC[C@@H]1C[C@@H](n2ccc3c(N[C@H]4CCc5ccccc54)ncnc32)C[C@@H]1O [MLN4924]
specific target cell lysis (NALM6 target cells): dose dependent | CAR expression after cullin inhibitor (CD19BBz CAR): rescue | GFP fluorescence relative to DMSO vehicle control ([1]; 1 μM MLN4924, 37 C, cells with functional STUD and GFP target): rescued

Compound: CC(C)C[C@@H](C=O)NC(=O)[C@H](CC(C)C)NC(=O)[C@H](CC(C)C)NC(=O)OCc1ccccc1 [MG-132] (Cbz-Leu-Leu-Leu-aldehyde)
GFP fluorescence relative to DMSO vehicle control ([1]; 5 μM MG-132, 37 C, cells with functional STUD and GFP target): rescued

Compound: RRRG [Bonger degron]
reduction of CAR expression [2]: over 90%

fold change of median normalized GFP fluorescence, flow cytometry, Jurkat T cells (STUD-induced degradation) (GFP-SZ17 [GFP: P42212]): 42 fold
Compound: SynZIP18(K->R)-5xGS-RRRG (designed binder)
